Assay results published in patent publication US20230149409A1, “TREATMENT OF HUMAN PAPILLOMAVIRUS-ASSOCIATED CANCERS BY PD-L1 INHIBITORS” (priority 2021, published 2023).

How the values were obtained:
[1] = molecular target: T1, PD-⅟PD-L1 (recombinant human PD-L1 protein and human PD-1 protein) (Homo sapiens, UniProt Q9NZQ7); assay: Homogeneous Time-Resolved Fluorescence (HTRF) PD-1/PD-L1 binding assay; conditions: 3 nM PD1, 10 nM PD-L1, 25° C., PBS pH 7.4
T1 construct: Recombinant human PD-L1 protein (19-238) with a His-tag at the C-terminus; purchased AcroBiosystems PD1-H5229 (PD-L1); PD1-H5257 (PD-1)
Protocol: Homogeneous Time-Resolved Fluorescence (HTRF) PD-⅟PD-L1 Binding Assay
The assays were conducted in a standard black 384-well polystyrene plate with a final volume of 20 uL. Inhibitors were first serially diluted in DMSO and then added to the plate wells before the addition of other reaction components. The final concentration of DMSO in the assay was 1%. The assays were carried out at 25° C. in the PBS buffer (pH 7.4) with 0.05% Tween-20 and 0.1% BSA. […] PD-L1 and PD-1 proteins were diluted in the assay buffer and 10 uL was added to the plate well. Plates were centrifuged and proteins were preincubated with inhibitors for 40 minutes. The incubation was followed by the addition of 10 uL of HTRF detection buffer supplemented with Europium cryptate-labeled anti-human IgG (PerkinElmer-AD0212) specific for Fc and anti-His antibody conjugated to SureLight®-Allophycocyanin (APC, PerkinElmer-AD0059H). […] Final concentrations in the assay were - 3 nM PD1, 10 nM PD-L1, 1 nM europium anti-human IgG and 20 nM anti-His-Allophycocyanin. IC50 determination was performed by fitting the curve of percent control activity versus the log of the inhibitor concentration using the GraphPad Prism 5.0 software.

[2] = tested on: PD-L1 (U2OS/PD-L1 cells, Jurkat-PD-1-SHP cells); assay: Src Homology Region 2 Domain-containing Phosphatase (SHP) assay; format: cell-based; conditions: Homo sapiens; U2OS/PD-L1 + Jurkat-PD-1-SHP cells, 2 hours
Protocol: Example 1B. Src Homology Region 2 Domain-containing Phosphatase (SHP) Assay
U2OS/PD-L1 cells (DiscoveRx Corporation) were maintained in McCoy’s 5A medium with addition of 10% FBS, 0.25 µg/mL Puromycin. After removing the culture media, the cell medium was replaced with assay medium (RPMI1640 medium with 1% FBS). The U2OS/PD-L1 cells were then added in 384-well black clear bottom assay plate (CELLCOAT® Tissue Culture Plates, Greiner Bio-One) at 5000 cells per well in 20 uL assay medium. Test compounds were prepared by serial dilution in DMSO and 125 nL compound were first transferred to the 384 REMP plate well (Thermofisher) by ECHO liquid handler (Labcyte) followed with addition of 27.5 uL assay medium. 5 µL/well compounds in the assay medium were transferred to the cell plate with 0.05% DMSO in the final assay at 0.25 µM. Jurkat-PD-1-SHP cells (DiscoveRx Corporation) were cultured in RPMI1640 medium supplemented with 10% FBS, 250 µg/mL Hygromycin B, 500 µg/mL G418. After the replacement of culture media with assay medium, 5,000 Jurkat-PD-1-SHP cells in 20 µL were dispensed into each well. The assay plate was incubated at 37° C., 5% CO2 for 2 hours before 2.5 uL PathHunter reagent 1 (DiscoveRx Corporation) were added to each well. The assay plate was shaken for 1 min at 350 rpm in the dark followed with addition of 10 uL PathHunter reagent 2 (DiscoveRx Corporation). Chemiluminescent signal was recorded with TopCount reader (Perkin Elmer) after incubation at room temperature for 1 hour. Wells with DMSO were served as the positive controls and wells containing no cells were used as negative controls. IC50 determination was performed by fitting the curve of percentage of control activity versus the log of the compound concentration using the GraphPad Prism 6.0 software.

[3] = tested on: PD-L1 (PD-L1 aAPC/CHO-K1 cells, Jurkat-PD-1-NFAT effector cells); assay: Nuclear Factor of Activated T-cells (NFAT) assay; format: cell-based; conditions: Cricetulus griseus; PD-L1 aAPC/CHO-K1 + Jurkat-PD-1-NFAT cells, 24 hours
Protocol: Nuclear Factor of Activated T-cells (NFAT) Assay
PD-L1 aAPC/CHO-K1cells (Promega) were maintained in F-12 medium with addition of 10% FBS, 200 µg/mL Hygromycin B, 250 µg/mL Geneticin (G418). […] The culture media of PD-L1 aAPC/CHO-K1 cells were first replaced with assay medium (RPMI1640 medium with 1% FBS). The PD-L1 aAPC/CHO-K1cells were then added in a white 384-well white clear bottom assay plate (CELLCOAT® Tissue Culture Plates, Greiner Bio-One) at 8000 per well in 10 uL assay medium. […] 5 uL compounds in the assay medium were transferred to the cells with 0.4% DMSO in the final assay at 2 µM. After removing the culture media, 10,000 Jurkat-PD-1-NFAT effector cells in 5 µL assay medium was dispensed into each well. The assay plate was incubated at 37° C., 5% CO2 for 24 hours. […] After 8 minutes incubation at room temperature, luminescence was read at with Pherastar microplate reader (BMG Labtech). The fold of induction (FOI) was calculated based on the ratio of luminescence normalized to the DMSO wells within each assay plate. The maximum percentage of induction was reported based on the ratio between the highest FOI of each compound and the maximum FOI of control compound within each assay plate. Wells with DMSO were served as the negative controls and wells containing control compound with the highest FOI were used as positive controls. EC50 determination was performed by fitting the curve of percent control activity versus the log of the compound concentration using the GraphPad Prism 6.0 software.

[4] = molecular target: T2, PD-L1 on CD14+ cells in human whole blood (Homo sapiens, UniProt Q9NZQ7); assay: PD-L1 whole blood internalization assay; format: cell-based; conditions: 1 ng/mL interferon γ, CD14+ gated, 24 hour
T2 construct: Cells were gated on CD14+ (BD Biosciences) and PD-L1 expression determined by mean fluorescence intensity; host or cells: CD14+ cells in normal human whole blood, stimulated with human interferon gamma
Protocol: PD-L1 Whole Blood Internalization Assay
To determine PD-L1 internalization in human whole blood, normal human blood (Biological Specialty Corp, Colmar. PA) was incubated in the presence or absence of a concentration range of test compounds and 1 ng/mL human interferon γ (R&D Systems Inc. Minn. MN) in a 96 well “2 mL Assay Block” (Corning, Corning NY) for 18-20 hours at 37 °C. Blood was then stained with PD-L1 (MIH1, eBioscience; or BD Biosciences San Jose, CA), CD14 (Life Technologies, Carlsbad, CA) for 30 minutes in the dark at room temperature. Whole Blood/red cells were lysed/fixed (lysis buffer BD Biosciences) for 5 minutes at 37 °C in the dark and then centrifuged at 1600 RPM for 5 minutes. Cells were resuspended in Stain Buffer (BD Bioscience, San Jose, CA) and transferred into 96 well round bottom plates (Coming). Cells were gated on CD14+ (BD Biosciences) and PD-L1 expression determined by mean fluorescence intensity (MFI) (BD LSRFortessa® X-20). IC50 determination was performed by fitting the curve of compound percent inhibition versus the log of the compound concentration using the GraphPad Prism 7.0 software.

T2 sequence (Q9NZQ7 19-290): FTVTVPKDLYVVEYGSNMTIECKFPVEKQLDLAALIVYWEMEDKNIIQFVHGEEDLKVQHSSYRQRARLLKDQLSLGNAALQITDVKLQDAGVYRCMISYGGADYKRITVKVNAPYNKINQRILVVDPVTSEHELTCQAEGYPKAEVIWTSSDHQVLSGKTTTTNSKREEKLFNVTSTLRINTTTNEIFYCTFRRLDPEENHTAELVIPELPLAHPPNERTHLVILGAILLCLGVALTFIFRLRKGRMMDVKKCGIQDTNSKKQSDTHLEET
T1 sequence (Q9NZQ7 19-238): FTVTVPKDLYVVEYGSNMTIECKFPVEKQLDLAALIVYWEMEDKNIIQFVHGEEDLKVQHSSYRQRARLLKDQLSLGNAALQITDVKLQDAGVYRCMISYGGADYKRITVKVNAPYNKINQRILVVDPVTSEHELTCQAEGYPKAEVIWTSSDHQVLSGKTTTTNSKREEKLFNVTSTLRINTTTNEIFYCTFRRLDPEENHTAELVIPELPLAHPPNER

| Structure (SMILES) | IC50 [1] [nM] | IC50 [2] [nM] | IC50 [4] [nM] | EC50 [3] [nM] |
| --- | --- | --- | --- | --- |
| Cc1cc(C(=O)Nc2cccc(-c3cccc(NC(=O)c4ccc(CN5CCCC5)cn4)c3Cl)c2C)ncc1CN1CCCC[C@H]1C(=O)O [Compound 9, (S)-1-((6-((2′-chloro-2-methyl-3′-(5-(pyrnolidin-1-ylmethyl)picolinamido)-[1,1′-biphenyl]-3-yl)carbamoyl)-4-methylpyridin-3-yl)methyl)piperidine-2-carboxylic acid] | < 10 | < 10 |  | < 100 |
| Cc1c(Nc2nccc3cc(CN4CC[C@@H](O)C4)cnc23)cccc1-c1cccc(NC(=O)c2nc3c(n2C)CCN(CC[C@H]2CC[C@H](C(=O)O)CC2)C3)c1Cl [Compound 10, trans 4-(2-(2-(2-chloro-3′-(3-(((R)-3-hydroxypyrrolidin-1-yl)methyl)-1,7-naphthyridin-8-ylamino)-2′-methylbiphenyl-3-ylcarbamoyl)-1-methyl-6,7-dihydro-1H-imidazo[4,5-c]pyridin-5(4H)-yl)ethyl)cyclohexanecarboxylic acid] | < 10 | < 10 | < 100 | < 100 |
| Cc1c(Nc2ncnc3cc(CN4CC[C@@H](O)C4)cnc23)cccc1-c1cccc(NC(=O)c2nc3c(n2C)CCN(C2CCC(C)(C(=O)O)CC2)C3)c1Cl (some centres unmarked) [Compound 12] | < 10 | < 10 | < 100 | < 100 |
| Cc1c(NC(=O)c2nc3c(n2C)CCN(C[C@H]2CC[C@H](C(=O)O)CC2)C3)cccc1-c1cccc(NC(=O)c2nc3c(n2C)CCN(C)C3)c1Cl [Compound 15, trans-4-((2-(2′-chloro-3′-(1,5-dimethyl-4,5,6,7-tetrahydro-1H-imidazo[4,5-c]pyfidine-2-caiboxamido)-2-methylbiphenyl-3-ylcarbamoyl)-1-methyl-6,7-dihydro-1H-imidazo[4,5-c]pyridin-5(4H)-yl)methyl)cyclohexane-1-carboxylic acid] | < 10 | < 10 | < 500 | < 100 |
| Cc1c(NC(=O)c2nc3c(n2C)CCN(CC[C@H]2CC[C@H](C(=O)O)CC2)C3)cccc1-c1cccc(NC(=O)c2nc3c(n2C)CCN(C)C3)c1Cl [Compound 16, trans-4-(2-(2-((2′-chloro-3′-(1,5-dimethyl-4,5,6,7-tetrahydro-1H-imidazo[4,5-c]pyfidine-2-caiboxamido)-2-methyl-[1,1′-biphenyl]-3-yl)caibamoyl)-1-methyl-1,4,6,7-tetrahydro-5H-imidazo[4,5-c]pyridin-5-yl)ethyl)cyclohexane-1-carboxylic acid] | < 10 | < 10 | < 100 | < 100 |

Continued, in another order:

| IC50 [1] [nM] | IC50 [2] [nM] | IC50 [4] [nM] | Structure (SMILES) | EC50 [3] [nM] |
| --- | --- | --- | --- | --- |
| < 10 | < 100 |  | Cc1c(-c2nc3c(Cl)cc(CNCCO)cn3n2)cccc1-c1cccc(NC(=O)c2ccc(CNCCO)cn2)c1Cl [Compound 2, N-(2-chloro-3′-(8-chloro-6-((2-hydroxyethylamino)methyl)-[1,2,4]triazolo[1,5-a]pyridin-2-yl)-2′-methylbiphenyl-3-yl)-5-((2-hydroxyethylamino)methyl)picolinamide] | < 500 |
| < 10 | < 10 | < 10 | Cc1c(NC(=O)c2ccc(CNCCO)cn2)cccc1-c1cccc(NC(=O)c2ccc(CNCCO)cn2)c1Cl [Compound 7, N,N′-(2-chloro-2′-methylbiphenyl-3,3′-diyl)bis(5-((2-hydroxyethylamino)methyl)picolinamide)] | < 100 |
| < 10 | < 100 |  | Cc1c(NC(=O)c2ccc(CN3CCC(C(=O)O)CC3)cn2)cccc1-c1cccc(NC(=O)c2ccc(CN3CC[C@@H](O)C3)cn2)c1Cl [Compound 8, (R)-1-((6-(2′-chloro-3′-(5-((3-hydroxypyrrolidin-1-yl)methyl)picolinamido)-2-methylbiphenyl-3-ylcarbamoyl)pyridin-3-yl)methyl)piperidine-4-carboxylic acid] | < 100 |
